Experimental data taken from ChEMBL document CHEMBL4219042, “Advances in macrocyclic peptide-based antibiotics” (2018).

How the values were obtained:
Format in all cases: functional
Pseudomonas aeruginosa [1] = assay: Antibacterial activity against multidrug-resistant Pseudomonas aeruginosa 5298 after 16 to 20 hrs by agar dilution method
Pseudomonas aeruginosa [2] = assay: Antibacterial activity against multidrug-resistant Pseudomonas aeruginosa 5215 after 16 to 20 hrs by agar dilution method
Escherichia coli [3] = assay: Antibacterial activity against multidrug-resistant Escherichia coli 5237 after 16 to 20 hrs by agar dilution method
Escherichia coli [4] = assay: Antibacterial activity against multidrug-resistant Escherichia coli 5353 after 16 to 20 hrs by agar dilution method
Escherichia coli [5] = assay: Antibacterial activity against multidrug-resistant Escherichia coli 5364 after 16 to 20 hrs by agar dilution method
Pseudomonas aeruginosa [6] = assay: Antibacterial activity against multidrug-resistant Pseudomonas aeruginosa 5585 after 16 to 20 hrs by agar dilution method
Pseudomonas aeruginosa [7] = assay: Antibacterial activity against multidrug-resistant Pseudomonas aeruginosa 5313 after 16 to 20 hrs by agar dilution method
Pseudomonas aeruginosa [8] = assay: Antibacterial activity against multidrug-resistant Pseudomonas aeruginosa 5510 after 16 to 20 hrs by agar dilution method
Escherichia coli [9] = assay: Antibacterial activity against multidrug-resistant Escherichia coli 5539 after 16 to 20 hrs by agar dilution method

Measured: MIC

CCC(C)CCC(O)CC(=O)N[C@H](CCN)C(=O)N[C@H]1CCNC(=O)[C@H](CC(C)C)NC(=O)[C@H](CCN)NC(=O)[C@H](CCN)NC(=O)[C@@H](Cc2ccccc2)NC(=O)[C@H](CC(C)C)NC(=O)[C@H](CCN)NC1 (some centres undefined)
2 to 4 µg/mL: all assays above
